Literature values, collected in patent publication EP3731827B1, “ORAL PHARMACEUTICAL COMPOSITION COMPRISING POSACONAZOLE” (Sanovel Ilac Sanayi ve Ticaret A.S., priority 2017, dated 2019).
Read-outs that look alike come from different tables or passages of the source.

CC[C@@H]([C@H](C)O)n1ncn(-c2ccc(N3CCN(c4ccc(OC[C@@H]5CO[C@@](Cn6cncn6)(c6ccc(F)cc6F)C5)cc4)CC3)cc2)c1=O [posaconazole, 4-[4-[4-[4-[[(3R,5R)-5-(2,4-difluorophenyl)-5-(1,2,4-triazol-1-ylmethyl)oxolan-3-yl]methoxy]phenyl]piperazin-1-yl]phenyl]-2-[(2S,3S)-2-hydroxypentan-3-yl]-1,2,4-triazol-3-one]
solubility (at pH 6.4 or higher): less than 1 µg/ml | solubility (in the stomach): about 0.8 mg/ml
